Assay results as given in US10682320B2, “Method for inhibiting osteoclast development” (West Virginia University, priority 2012, dated 2020).

Columns and labels:
[1] = cited from earlier work
CRAC channel = CRAC channel (Homo sapiens, UniProt Q13586); assay: CRAC channel activity by Fura-2 fluorescence in Jurkat cells after thapsigargin; type: cell-based; parameters: endogenous in cells; host or cells: Jurkat cells
Protocol: Ratiometric imaging of intracellular Ca^2+ using fura-2 was as described (see, Zhou et al., 2009 above). Briefly, cells on coverslips, in cation safe solution (107 mM NaCl, 7.2 mM KCl, 1.2 mM MgCl2, 11.5 mM glucose, 20 mM HEPES-NaOH, pH 7.2) were loaded with fura-2 acetoxymethyl ester (2 μM) for 30 min at 24° C. Cells were washed and fluorescent probe was allowed to de-esterify for 30 min. From signal remaining after saponin permeabilization, ˜85% of the dye was confined to the cytoplasm (see, Ma H-T, Patterson R L. van Rossum D B. Birnbaumer L, Mikoshiba K, Gill D L, “Requirement of the inositol trisphosphate receptor for activation of store-operated Ca^2+ channels”, Science, Vol. 287, pages 1647-1651, 2000). Ca^2+ measurements were made using a Leica DMI 6000B fluorescence microscope controlled by Slidebook Software. Fluorescence emission at 505 nm was monitored while alternating between 340 and 380 nm excitation wavelengths at a frequency of 0.67 Hz; intracellular Ca^2+ measurements are shown as 340/380 nm emission ratios obtained from groups (35-45) of single cells. Measurements shown are representative a minimum of three independent experiments.
N-(3,4-dibromophenyl)propanamide]. Jurkat cells, a T cell line that is very sensitive to DCPA, was cultured with the indicated compounds, DCPA, DBPA, and ethanol (EtOH). CRAC channel activity was monitored using Fura-2 fluorescence using standard known techniques. Cells were incubated in each composition at 100 uM for 10 minutes prior to addition of the SERCA inhibitor thapsigargin (Tg) to induce SOCe. Decreased CRAC channel activity is clearly evident with DCPA and DBPA.
Jurkat cells, a T cell line that is very sensitive to DCPA, was cultured with the indicated compositions of the present invention, namely, DNI, NM Propanil, and DNMNI. CRAC channel activity was monitored using Fura-2 fluorescence using standard known techniques. Cells were incubated in each composition at 100 uM for 10 minutes prior to addition of the SERCA inhibitor thapsigargin (Tg) to induce SOCe. Decreased CRAC channel activity is clearly evident with each of the compositions of the present invention. […] Each of the compositions of this invention achieve the results achieved with the known DCPA but without the burden of toxicity of DCPA that would accompany further metabolism of DCPA.

[2] = molecular target: T1, CRAC channel (Orai I / STIM I) (Homo sapiens, UniProt Q13586); assay: Whole cell CRAC current (Icrac) in HEK293 cells expressing Orai I and YFP-STIM I; type: cell-based; conditions: whole cell clamp
T1 construct: expressed in transfected cells; host or cells: HEK293
Protocol: Analysis was performed in HEK293 cells stably expressing Orai I and transfected with STIM I YFP used conventional whole cell voltage recordings as described (see, Wang Y, Deng X, Zhou Y, Hendron E, Mancarelia S, Ritchie M F. Tang X D, Baba Y, Kurosaki T, Mori Y, Soboloff J, Gill D L., “STIM protein coupling in the activation of Orai channels”, Proc Natl Acad Sci USA Vol. 106, pages 7391-7396, 2009). Immediately after establishment of the whole-cell electrode seal, voltage ramps spanning from—100 to +100 mV in 50 msec were delivered from a holding potential of 0 mV at a rate of 0.5 Hz. A 10 mV junction potential compensation was applied. […]
The haloanilide DCPA blocks store-operated Ca^2+ channel function in Jurkat cells with no effect on ER Ca^2+ content. […] To address this, the present inventor examined HEK293 cells stably expressing Orai I and transiently transfected with YFP-STIMI and measured the effect of DCPA on CRAC current or Icrac. CRAC channel activity was measured in the whole cell clamp position after passively depleting Ca^2+ stores via the presence of 10 mM EGTA in the patch pipette. […]

Chain of CRAC channel (Q13586 23-685): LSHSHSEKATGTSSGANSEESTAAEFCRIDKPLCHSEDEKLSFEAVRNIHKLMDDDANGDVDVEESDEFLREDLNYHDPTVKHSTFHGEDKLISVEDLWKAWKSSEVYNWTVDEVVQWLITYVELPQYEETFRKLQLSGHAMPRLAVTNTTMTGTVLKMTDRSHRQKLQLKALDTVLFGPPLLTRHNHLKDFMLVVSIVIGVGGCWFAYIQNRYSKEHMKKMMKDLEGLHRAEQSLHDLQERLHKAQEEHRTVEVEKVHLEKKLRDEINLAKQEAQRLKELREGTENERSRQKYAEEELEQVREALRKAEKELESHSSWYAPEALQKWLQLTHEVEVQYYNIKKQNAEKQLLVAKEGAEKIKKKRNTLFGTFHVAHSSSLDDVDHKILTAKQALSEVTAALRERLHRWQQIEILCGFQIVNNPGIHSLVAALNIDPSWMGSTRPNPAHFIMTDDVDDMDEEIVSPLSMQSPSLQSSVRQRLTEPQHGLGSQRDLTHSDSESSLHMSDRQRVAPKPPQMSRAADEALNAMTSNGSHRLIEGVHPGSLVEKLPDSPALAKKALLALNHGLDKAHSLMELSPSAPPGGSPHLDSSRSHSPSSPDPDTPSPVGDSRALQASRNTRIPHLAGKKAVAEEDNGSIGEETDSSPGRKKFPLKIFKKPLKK
T1 sequence (Q13586 23-685): as above

## CCC(=O)Nc1ccc(Cl)c(Cl)c1 [DCPA, N-(3,4-dichlorophenyl)propanamide]
[1]
  doses mice can tolerate: > 100 mg/kg
[1]; mice
  doses producing frank immunotoxicity: > 150 mg/kg
CRAC channel
  effect on ER Ca2+ content: no effect
  store-operated Ca2+ channel function: blocks
CRAC channel; 100 uM, 10 minutes before thapsigargin
  CRAC channel activity: Decreased
[2]
  current-voltage relationship versus control cells: did not show significant differences
[2]; 10 mM EGTA in pipette
  time for CRAC current to return to baseline after break-in: less than 4 minutes
